Columns and labels:
[1] = tested on: S4897 plants; experiment: Field trials in Argentina, resistance to imazapic (Example 4); assay type: in vivo, Helianthus annuus; conditions: S4897 versus IMISUN-1 (Ala190-to-Val), single row plots, no data presented
Method: In field trials in Argentina, S4897 plants were tested for resistance to imazapic. […] This trial had single row plots and was treated on a windy day, so the actual herbicide dose reaching the plants was likely less than was applied.

[2] = tested on: Clearfield-Sunflower variety A; experiment: Greenhouse spray test, injury rating (Example 5); assay type: in vivo, Helianthus annuus; conditions: 14 DAT, scale 0=no injury to 9=dead plant
Text: (§1) Sunflower lines S4897, Clearfield® sunflower varieties A, B, C and a conventional non-Clearfield variety were sprayed with three rates of imazamox (Raptor™), 100, 200 and 300 gm ai/ha plus 0.5% Sun It II and two rates of imazapyr (Arsenal™) 160 and 360 gm ai/ha plus 0.5% Sun It II when the plants were at the two to three leaf stage. Ratings were taken at 14 days after application (DAT) for injury. Injury was rated on a scale from 0 to 9 where 0=no injury to 9=dead plant. Twelve plants were sprayed per herbicide/rate treatment. Statistical analysis was conducted with STATGRAPHICS Plus 5.0 by using ANOVA and LSD procedures.
(§2) After plants were sprayed, it was realized that a height difference between S4897 and other sunflower varieties would have impacted the actual herbicide dose that was delivered. The spray boom height had been calibrated against S4897 and since the other varieties were taller and closer to the boom they would have received a greater dose of herbicide. Rates were recalibrated for the other varieties to determine the approximate dose they would have received. Assessments were made as presented in Table 2 since it was not possible to make a direct rate comparison due to the effect of the height. For example injury scores were compare for S4897 treated imazamox rate 100 gm ai/ha to the other varieties treated at 75 gm ai/ha. The treatment dose of 300 gm ai/ha for line S4897 was equivalent to the treatment of 200 gm ai/ha for the other varieties, which […].

[3] = tested on: Clearfield-Sunflower variety B; experiment: Greenhouse spray test, injury rating (Example 5); assay type: in vivo, Helianthus annuus; conditions: 14 DAT, scale 0=no injury to 9=dead plant
Text: as §1, §2

[4] = tested on: Clearfield-Sunflower variety C; experiment: Greenhouse spray test, injury rating (Example 5); assay type: in vivo, Helianthus annuus; conditions: 14 DAT, scale 0=no injury to 9=dead plant
Text: as §1, §2

[5] = tested on: Conventional non-Clearfield sunflower variety; experiment: Greenhouse spray test, injury rating (Example 5); assay type: in vivo, Helianthus annuus; conditions: 14 DAT, scale 0=no injury to 9=dead plant
Text: as §1, §2

[6] = tested on: Sunflower line S4897; experiment: Greenhouse spray test, injury rating (Example 5); assay type: in vivo, Helianthus annuus; conditions: 14 DAT, scale 0=no injury to 9=dead plant
Text: as §1, §2

[7] = tested on: AHAS; experiment: AHAS activity analysis, inhibition by herbicide (Example 5); assay type: biochemical, Helianthus annuus; conditions: AHAS of S4897 versus a Clearfield sunflower and a conventional non Clearfield variety; higher concentration of imazamox (FIG. 7)
Method: AHAS activity analysis was also conducted by selecting actively growing young leaves from plants that were not sprayed with herbicide at approximately four weeks after planting.

[8] = tested on: S4897 sunflower plants; experiment: Greenhouse spray treatment with imazamox (FIG. 3, 4); assay type: in vivo, Helianthus annuus; conditions: S4897 versus IMISUN-1 and wild-type; imazamox 100 or 200 g ai/ha; evaluated 17 days after application
Method: (§3) The S4897 and IMISUN-1 sunflower plants were spray-treated with imazamox at rate of 200 g ai/ha. […] The photograph was taken a few days after the plants were spray treated.
(§4) FIG. 4 is graphical illustration of herbicide injury in a greenhouse test following the spray treatment of IMISUN-1, wild-type, and S4897 sunflower plants with imazamox at either 100 (light columns) or 200 g ai/ha (dark columns). […] Herbicide injury was evaluated 17 days after the imazamox application.

[9] = tested on: wild-type sunflower plants; experiment: as above; assay type: in vivo, Helianthus annuus; conditions: wild-type control plants, imazamox at either 100 or 200 g ai/ha
Method: as §3, §4

[10] = Imazamox 300 gm ai/ha (dose received)

Cc1cnc(C2=NC(=O)C(C)(C(C)C)N2)c(C(=O)O)c1 (stereo not shown) [imazapic]
resistance (tolerance) to imazapic [1]: clearly superior to the IMISUN-1

COCc1cnc(C2=NC(C)(C(C)C)C(=O)N2)c(C(=O)O)c1 (stereo not shown) [imazamox]
Injury ([2]; Imazamox 75 gm ai/ha): 4.3 c
Injury ([2]; Imazamox 150 gm ai/ha): significantly injured and had stopped growing
Injury ([2]; Imazamox 150 gm ai/ha, listed as Imazamox): 4.6 c
Injury [2, 10]: 6.5 days
Injury ([3]; Imazamox 75 gm ai/ha): 1.9 b
Injury ([3]; Imazamox 150 gm ai/ha): 4.8 c
Injury [3, 10]: 5.3 c
Injury ([4]; Imazamox 75 gm ai/ha): 1.8 b
Injury ([4]; Imazamox 150 gm ai/ha): 2.9 b
Injury [4, 10]: 4.6 b
Injury ([5]; Imazamox 75 gm ai/ha): 7.2 days
Injury ([5]; Imazamox 150 gm ai/ha): 8.2 days
Injury [5, 10]: 8.7 e
Injury ([6]; Imazamox 100 gm ai/ha): 0.5 a
Injury ([6]; Imazamox 200 gm ai/ha): little to no injury
Injury ([6]; Imazamox 200 gm ai/ha, listed as Imazamox): 0.8 a
Injury ([6]; Imazamox 300 gm ai/ha): very little injury
Injury ([6]; Imazamox 300 gm ai/ha, listed as Imazamox): 0.8 a
inhibition of AHAS activity [7]: less inhibition at the higher concentration of imazamox as compared to a Clearfield® sunflower and conventional non Clearfield variety
herbicide injury (resistance or tolerance) [8]: significantly greater resistance or tolerance
survival following spray treatment [9]: did not survive

From US20150176022A1, “HERBICIDE-RESISTANT SUNFLOWER PLANTS, POLYNUCLEOTIDES ENCODING HERBICIDE=RESISTANT ACETO HYDROXY ACID SYNTHASE LARGE SUBUNIT PROTEINS, AND METHODS OF USE” (priority 2013, published 2015)
